In ChEMBL document CHEMBL1121594, “Adaptive least-squares method applied to structure--activity correlation of hypotensive N-alkyl-N''-cyano-N'-pyridylguanidines” (J Med Chem, 1980):

Key:
Format in all cases: organism-based
Settings in all cases: in vivo
[1] = system: Rattus norvegicus; experiment: The hypotensive activity expressed as rating of therapeutic index (MED/LD50 <1/200).
[2] = system: Rattus norvegicus; experiment: The hypotensive activity expressed as rating of therapeutic index (1/30> MED/LD50 >=1/200).
[3] = system: Rattus norvegicus; experiment: The hypotensive activity expressed as rating of therapeutic index (MED/LD50 >=1/30).

How did the TI rating [1] turn out when `CCC(C)(C)NC(=NC#N)Nc1cccnc1` was run?
Its TI rating is 3.

With `CC(C)CC(C)(C)/N=C(\NC#N)Nc1cccnc1` as the compound, how does the TI rating [1] read?
Its TI rating is 3.

For `CC(C)(C)C(C)(C)/N=C(\NC#N)Nc1ccncc1`, which TI rating [2] is on record?
Its TI rating is 2.

For `CCC(CC)/N=C(\NC#N)Nc1ccncc1`, which TI rating [2] is on record?
The TI rating was 2.

`CC(C)C(/N=C(\NC#N)Nc1cccnc1)C(C)C` was tested. Which TI rating [1] did it give?
The TI rating was 3.

With `CC(C)(C)/N=C(\NC#N)Nc1ccc(Cl)nc1Cl` as the compound, how does the TI rating [3] read?
Its TI rating is 1.

With `CC(C)CCC(C)/N=C(\NC#N)Nc1ccncc1` (stereo not given) as the compound, how does the TI rating [3] read?
Its TI rating is 1.

`CCC(/N=C(\NC#N)Nc1ccncc1)C(C)C` (stereo not given) was tested. Which TI rating [2] did it give?
The TI rating was 2.

Which TI rating [2] does the source give for `CC(C)CC(C)(C)/N=C(\NC#N)Nc1ccncc1` here?
Its TI rating is 2.

For `CC1(/N=C(\NC#N)Nc2cccnc2)CCC1`, which TI rating [3] is on record?
Its TI rating is 1.

With `CC(/N=C(\NC#N)Nc1ccncc1)c1ccccc1` (stereo not given) as the compound, how does the TI rating [2] read?
Its TI rating is 2.

How did the TI rating [2] turn out when `CC(C)C/N=C(\NC#N)Nc1cccnc1` was run?
The TI rating was 2.

How did the TI rating [1] turn out when `N#CN/C(=N\C12C[C@H]3C[C@@H](C1)C[C@@H](C2)C3)Nc1ccncc1` was run?
The TI rating was 3.

`CCC(C)(C)/N=C(\NC#N)Nc1ccncc1` was tested. Which TI rating [1] did it give?
The TI rating was 3.

`CCOCC/N=C(\NC#N)Nc1cccnc1` was tested. Which TI rating [3] did it give?
The TI rating was 1.

Which TI rating [2] does the source give for `N#CN/C(=N\C1CCCC1)Nc1cccnc1` here?
Its TI rating is 2.

Which TI rating [1] does the source give for `CC(C)(C)/N=C(\NC#N)Nc1cncc(Br)c1` here?
Its TI rating is 3.

For `Cc1cc(C)nc(N/C(=N/C(C)(C)C)NC#N)c1`, which TI rating [3] is on record?
The TI rating was 1.

With `N#CN/C(=N\Cc1ccco1)Nc1cccnc1` as the compound, how does the TI rating [2] read?
Its TI rating is 2.

How did the TI rating [3] turn out when `CC(C)CC(C)/N=C(\NC#N)Nc1ccncc1` (stereo not given) was run?
Its TI rating is 1.

`N#CN/C(=N\Cc1ccccc1)Nc1cccnc1` was tested. Which TI rating [2] did it give?
The TI rating was 2.

Which TI rating [3] does the source give for `N#CNC(=N)Nc1cccnc1` here?
Its TI rating is 1.

`COc1ccc(/N=C(\NC#N)NC(C)(C)C)c(OC)n1` was tested. Which TI rating [3] did it give?
Its TI rating is 1.

With `CCC(C)(C)/N=C(\NC#N)Nc1c(C)cc(C)nc1C` as the compound, how does the TI rating [3] read?
Its TI rating is 1.

With `CC(C)(C)/N=C(/NC#N)Nc1cccnc1` as the compound, how does the TI rating [1] read?
Its TI rating is 3.

Which TI rating [1] does the source give for `CC(/N=C(/NC#N)Nc1cccnc1)C(C)(C)C` (stereo not given) here?
Its TI rating is 3.

For `CC(C)(C)C/N=C(/NC#N)Nc1cccnc1`, which TI rating [1] is on record?
Its TI rating is 3.

`N#CN/C(=N\C1CCCCC1)Nc1cccnc1` was tested. Which TI rating [2] did it give?
The TI rating was 2.

With `CCN(CC)CC/N=C(\NC#N)Nc1cccnc1` as the compound, how does the TI rating [3] read?
Its TI rating is 1.

How did the TI rating [3] turn out when `N#CN/C(=N\CCc1ccccc1)Nc1cccnc1` was run?
Its TI rating is 1.

For `CCCC/N=C(\NC#N)Nc1cccnc1`, which TI rating [2] is on record?
The TI rating was 2.

Which TI rating [3] does the source give for `N#CN/C(=N\CC1CCCO1)Nc1cccnc1` (stereo not given) here?
Its TI rating is 1.

Which TI rating [3] does the source give for `N#CN/C(=N\C1CCCCC1)Nc1ccccn1` here?
Its TI rating is 1.

`N#CN/C(=N\c1ccccc1)Nc1ccncc1` was tested. Which TI rating [3] did it give?
Its TI rating is 1.

For `CC(C)C(C)(C)/N=C(\NC#N)Nc1ccncc1`, which TI rating [2] is on record?
The TI rating was 2.

Which TI rating [2] does the source give for `CCCCC/N=C(\NC#N)Nc1cccnc1` here?
The TI rating was 2.

`CC(C)(C)C/N=C(\NC#N)Nc1ccncc1` was tested. Which TI rating [2] did it give?
Its TI rating is 2.

Which TI rating [3] does the source give for `CC(C)(C)CC(C)(C)/N=C(\NC#N)Nc1cccnc1` here?
The TI rating was 1.

How did the TI rating [3] turn out when `CCCCC(CC)C/N=C(\NC#N)Nc1cccnc1` (stereo not given) was run?
The TI rating was 1.

For `N#CN/C(=N\C1CCCCC1)Nc1ccncc1`, which TI rating [3] is on record?
The TI rating was 1.

Which TI rating [2] does the source give for `N#CN/C(=N\C(C1CC1)C1CC1)Nc1ccncc1` here?
Its TI rating is 2.

With `CC(/N=C(\NC#N)Nc1ccncc1)C1CC1` (stereo not given) as the compound, how does the TI rating [2] read?
Its TI rating is 2.

For `CC(C)C(/N=C(\NC#N)Nc1ccncc1)C(C)C`, which TI rating [3] is on record?
Its TI rating is 1.

`CC(C)C(C)(C)/N=C(\NC#N)Nc1cccnc1` was tested. Which TI rating [1] did it give?
The TI rating was 3.

`CC(C)(NC(=NC#N)Nc1cccnc1)c1ccccc1` was tested. Which TI rating [3] did it give?
Its TI rating is 1.

Which TI rating [3] does the source give for `CC(C)(C)/N=C(\NC#N)Nc1ccc(Cl)cn1` here?
Its TI rating is 1.

Which TI rating [3] does the source give for `CC(C)(C)/N=C(\NC#N)Nc1ccccn1` here?
Its TI rating is 1.

`CCC(C)/N=C(\NC#N)Nc1cccnc1` (stereo not given) was tested. Which TI rating [2] did it give?
The TI rating was 2.

For `N#CN/C(=N\C12C[C@H]3C[C@@H](C1)C[C@@H](C2)C3)Nc1cccnc1`, which TI rating [3] is on record?
Its TI rating is 1.

With `N#CN/C(=N\c1ccccc1)Nc1cccnc1` as the compound, how does the TI rating [2] read?
Its TI rating is 2.

With `N#CN/C(=N\c1cccnc1)N1CCCCC1` as the compound, how does the TI rating [2] read?
The TI rating was 2.

Which TI rating [1] does the source give for `CCC(CC)(CC)/N=C(\NC#N)Nc1cccnc1` here?
Its TI rating is 3.

How did the TI rating [2] turn out when `N#CN/C(=N\Cc1ccccc1)Nc1ccncc1` was run?
Its TI rating is 2.

`CC(C)(C)CC(C)(C)/N=C(\NC#N)Nc1ccncc1` was tested. Which TI rating [3] did it give?
Its TI rating is 1.

With `CCC(C)(CC)/N=C(\NC#N)Nc1cccnc1` as the compound, how does the TI rating [1] read?
Its TI rating is 3.

Which TI rating [3] does the source give for `CCCCCCC/N=C(\NC#N)Nc1cccnc1` here?
The TI rating was 1.

With `CC(C)/N=C(\NC#N)Nc1cccnc1` as the compound, how does the TI rating [1] read?
The TI rating was 3.

`C=C(C)C/N=C(\NC#N)Nc1cccnc1` was tested. Which TI rating [2] did it give?
The TI rating was 2.

Which TI rating [1] does the source give for `CC(C)(C)/N=C(\NC#N)Nc1ccncc1` here?
Its TI rating is 3.

For `N#CN/C(=N\C1CCCCCCC1)Nc1ccncc1`, which TI rating [3] is on record?
Its TI rating is 1.

For `CCCC(C)(C)/N=C(\NC#N)Nc1cccnc1`, which TI rating [1] is on record?
The TI rating was 3.

For `CCC(CC)/N=C(\NC#N)Nc1cccnc1`, which TI rating [3] is on record?
The TI rating was 1.

How did the TI rating [3] turn out when `CCC(C)C(C)/N=C(\NC#N)Nc1ccncc1` (stereo not given) was run?
Its TI rating is 1.

`N#CN/C(=N\C1CC1)Nc1cccnc1` was tested. Which TI rating [2] did it give?
Its TI rating is 2.

How did the TI rating [2] turn out when `N#CN/C(=N\CCc1ccccc1)Nc1ccncc1` was run?
The TI rating was 2.

For `CC(C)CC/N=C(\NC#N)Nc1cccnc1`, which TI rating [2] is on record?
Its TI rating is 2.

Which TI rating [3] does the source give for `CC(C)(C)C(C)(C)/N=C(\NC#N)Nc1cccnc1` here?
Its TI rating is 1.

For `CCC/N=C(\NC#N)Nc1cccnc1`, which TI rating [2] is on record?
The TI rating was 2.

With `C/N=C(\NC#N)Nc1cccnc1` as the compound, how does the TI rating [3] read?
The TI rating was 1.

With `CCC(C)(CC)/N=C(\NC#N)Nc1ccncc1` as the compound, how does the TI rating [1] read?
The TI rating was 3.

For `Cc1cccc(C)c1/N=C(\NC#N)Nc1cccnc1`, which TI rating [3] is on record?
The TI rating was 1.

For `CCC(CC)(CC)/N=C(\NC#N)Nc1ccncc1`, which TI rating [1] is on record?
Its TI rating is 3.

Which TI rating [1] does the source give for `CC(C)(C)/N=C(\NC#N)Nc1cccnc1Cl` here?
Its TI rating is 3.

For `COc1ccc(N/C(=N/C(C)(C)C)NC#N)cn1`, which TI rating [3] is on record?
The TI rating was 1.

Which TI rating [3] does the source give for `Cc1cc(C)c(/N=C(\NC#N)NC(C)(C)C)c(C)n1` here?
Its TI rating is 1.
